The structures appear in SMILES notation. Bounds are passed on as bounds.

Assay [1] has as its target T1, human full-length recombinant HDAC1 (Homo sapiens (Human), UniProt Q13547). The experiment in a line: HDAC1 enzymatic activity assay (Reaction Biology Corporation, RHKKAc fluorogenic peptide). Type of assay: biochemical. The note with it: Reaction Biology Corporation protocol, RHKKAc fluorogenic peptide 10 μM; read-out: HDAC1 biochem. Here is the method: (§1) Dose response testing of HDAC6 and HDAC 1 were run at Reaction Biology Corporation (RBC). Inhibition of HDAC enzymes was performed using N-terminal GST tagged human full-length recombinant HDAC6 (H88-30G, SignalChem) and C-terminal FLAG His tag human full-length recombinant HDAC1 produced in insect cells (KDA-21-365, RBC). Enzyme reactions were run in 50 mM Tris-HCl, pH8.0, 137 mM NaCl, 2.7 mM KCl, and 1 mM MgCl2 with 1 mg/ml BSA, 1% DMSO freshly added. 2× enzyme was delivered in the wells of the reaction plate except for the “no enzyme” control wells. In the latter, buffer was added. Compounds in 100% DMSO were delved into the enzyme mixture by acoustic technology (Echo550). Plates are spun down and compounds were incubation with the enzyme for 10 min at room temperature. 2× Fluorogenic peptide from p53 residues 379-382 (RHKKAc, 10 μM final concentration) was added in all wells to initiate the reaction, followed by 1 h incubation at 30° C. Developer containing Trichostatin A was added to stop the reaction and generate fluorescent color. A kinetic measurement was carried out for 20 min with 5 min interval on the Envision plate reader (Perkin Elmer, Ex/Em=360/460). End point reading i.e., plateau of the development reaction was used for analysis. Data was reported by RBC as percentage enzyme activity. Percentage inhibition was calculated by subtracting percentage enzyme activity from 100. IC50 values were calculated using GraphPad Prism 9 based on the log(inhibitor) vs. response—Variable slope (four parameters) equation.

In assay [2] the target is T2, human full-length recombinant HDAC6 (Homo sapiens (Human), UniProt Q9UBN7). In words: HDAC6 enzymatic activity assay (Reaction Biology Corporation, RHKKAc fluorogenic peptide). Type of assay: biochemical. The note with it: Reaction Biology Corporation protocol, RHKKAc fluorogenic peptide 10 μM; read-out: HDAC6 biochem. Here is the method:
as §1

In assay [3] the target is catalytic domain 2 (CD2) of HDAC6 (Homo sapiens (Human), UniProt Q9UBN7). The experiment in a line: Cellular target engagement assay - NanoBRET. Format: cell-based. The note with it: NanoLuc-HDAC6(CD2) in HEK293T cells, 2 hours, read-out: IC50 (HDAC6(CD2) interaction). For orientation: BRET reads energy transfer from a luciferase to a nearby fluorophore.
Chain of catalytic domain 2 (CD2) of HDAC6 (Q9UBN7 482-800): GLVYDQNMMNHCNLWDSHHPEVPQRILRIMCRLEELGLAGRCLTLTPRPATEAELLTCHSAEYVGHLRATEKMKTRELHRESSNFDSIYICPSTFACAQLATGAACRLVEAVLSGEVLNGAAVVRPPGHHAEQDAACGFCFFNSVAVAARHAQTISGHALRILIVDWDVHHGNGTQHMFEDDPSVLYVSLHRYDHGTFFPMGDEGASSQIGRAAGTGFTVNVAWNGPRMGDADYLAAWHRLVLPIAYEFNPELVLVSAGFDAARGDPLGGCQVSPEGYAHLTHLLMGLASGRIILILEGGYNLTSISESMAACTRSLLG
For assay [4], the target named is T2, human full-length recombinant HDAC6. In words: HDAC6 enzymatic activity assay (alternative protocol, Ac-Gly-Ala-Lys(Ac)-AMC). Type of assay: biochemical. The note with it: 5 nM enzyme, read-out: HDAC6 biochem. The protocol:
(§2) Inhibition of HDAC enzymes was performed in 384-well plate format using human full-length recombinant HDAC1 and HDAC6, isolated from a baculovirus expression system in Sf9 cells (BPS Bioscience). Reaction buffer for HDAC1 contained 50 mM Tris HCl pH 8.0, 137 mM NaCl, 2.7 mM KCl, 1 mM MgCl2, 0.1 mg/mL BSA, and reaction buffer for HDAC6 contained 50 mM Tris/HCl, pH 8.0, 137 mM NaCl, 2.7 mM KCl, 250 μM EDTA, 1 mM DTT, 0.1 mg/mL BSA. Compounds (dissolved in 100% DMSO) or DMSO (vehicle) were diluted in assay buffer at 3× final assay concentration and then added to assay plates. SAHA ([…]) was used as a positive control. 3× final assay concentration of recombinant enzymes (final assay concentration is 4 nM and 5 nM for HDAC1 and HDAC6, respectively) were preincubated for 10 minutes with test compounds at room temperature. Afterwards, 3× final assay concentration of an acetylated fluorogenic peptide (Ac-Gly-Ala-Lys(Ac))-AMC, Bachem; final assay concentration is 12 µM and 40 µM for HDAC1 and HDAC6, respectively) was added to assay plate, allowing deacetylase reactions to incubate for 60 minutes at room temperature. The developer reagent containing 5 μM SAHA and 50 μM trypsin was added to stop the deacetylase reaction and generate AMNC-fluorescence. 15 minutes after addition of developer reagent, endpoint measurements were taken using CLARIOstar (BMG Labtech) plate reader (excitation/emission: 360/450). Fluorescence signals were normalized for each plate using GraphPad Prism software: reaction HDAC-substrate in presence of DMSO was set to 100% while reaction HDAC-substrate in presence of 10 μM SAHA was set to 0%.

In assay [5] the target is T1, human full-length recombinant HDAC1. In words: HDAC1 enzymatic activity assay (alternative protocol, Ac-Gly-Ala-Lys(Ac)-AMC). Format: biochemical. Conditions: 4 nM enzyme, read-out: HDAC1 biochem. Here is the method:
as §2

T2 sequence (Q9UBN7 whole entry): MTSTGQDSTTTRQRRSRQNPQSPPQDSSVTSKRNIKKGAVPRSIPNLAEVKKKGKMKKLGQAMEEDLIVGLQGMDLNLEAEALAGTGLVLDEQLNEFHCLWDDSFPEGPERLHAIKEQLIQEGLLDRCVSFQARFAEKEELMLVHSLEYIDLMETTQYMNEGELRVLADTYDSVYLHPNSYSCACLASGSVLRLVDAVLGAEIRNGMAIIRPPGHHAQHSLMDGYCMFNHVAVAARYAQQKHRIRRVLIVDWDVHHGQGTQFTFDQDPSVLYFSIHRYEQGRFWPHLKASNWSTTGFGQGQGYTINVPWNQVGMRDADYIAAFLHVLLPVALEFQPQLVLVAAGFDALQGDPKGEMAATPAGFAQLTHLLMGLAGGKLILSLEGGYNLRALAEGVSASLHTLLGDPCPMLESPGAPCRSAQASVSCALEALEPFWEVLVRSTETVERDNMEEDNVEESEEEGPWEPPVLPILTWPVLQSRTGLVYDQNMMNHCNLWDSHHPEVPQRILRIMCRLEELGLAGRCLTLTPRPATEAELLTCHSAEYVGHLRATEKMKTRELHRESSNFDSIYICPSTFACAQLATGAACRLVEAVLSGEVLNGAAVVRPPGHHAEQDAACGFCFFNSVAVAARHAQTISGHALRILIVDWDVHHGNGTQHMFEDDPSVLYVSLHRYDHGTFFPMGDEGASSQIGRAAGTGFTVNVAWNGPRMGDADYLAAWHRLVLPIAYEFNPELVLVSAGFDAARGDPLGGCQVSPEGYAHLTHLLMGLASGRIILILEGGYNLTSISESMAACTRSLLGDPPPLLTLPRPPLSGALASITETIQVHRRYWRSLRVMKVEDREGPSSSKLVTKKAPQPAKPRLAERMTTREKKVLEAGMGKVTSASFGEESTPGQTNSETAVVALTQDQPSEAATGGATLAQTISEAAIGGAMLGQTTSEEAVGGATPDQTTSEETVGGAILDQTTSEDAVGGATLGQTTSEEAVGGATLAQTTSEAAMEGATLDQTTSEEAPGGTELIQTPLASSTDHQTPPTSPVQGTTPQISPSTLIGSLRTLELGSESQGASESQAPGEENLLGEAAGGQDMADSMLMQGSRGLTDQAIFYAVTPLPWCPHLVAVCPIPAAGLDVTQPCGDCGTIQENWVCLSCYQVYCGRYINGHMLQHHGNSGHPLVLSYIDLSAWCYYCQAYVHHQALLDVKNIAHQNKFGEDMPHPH
T1 sequence (Q13547 whole entry): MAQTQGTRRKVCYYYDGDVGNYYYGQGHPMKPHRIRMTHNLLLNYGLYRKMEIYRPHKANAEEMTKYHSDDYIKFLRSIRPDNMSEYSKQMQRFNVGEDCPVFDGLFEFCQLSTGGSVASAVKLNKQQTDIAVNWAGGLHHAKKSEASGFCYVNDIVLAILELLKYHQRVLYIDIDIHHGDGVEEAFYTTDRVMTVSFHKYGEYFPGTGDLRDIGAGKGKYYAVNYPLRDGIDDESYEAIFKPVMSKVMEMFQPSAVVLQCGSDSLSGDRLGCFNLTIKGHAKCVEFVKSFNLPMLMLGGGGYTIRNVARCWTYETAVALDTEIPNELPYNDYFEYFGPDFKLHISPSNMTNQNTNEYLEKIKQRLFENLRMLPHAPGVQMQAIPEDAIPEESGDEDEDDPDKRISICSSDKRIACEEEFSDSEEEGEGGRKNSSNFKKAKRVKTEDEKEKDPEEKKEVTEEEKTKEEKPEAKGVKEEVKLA

With `CCn1cc2c(SCC(=O)c3ccc(CNC(=O)CO)s3)nc(C(F)(F)F)nc2n1` [Compound 135, N-((5-(2-((2-ethyl-6-(trifluoromethyl)-2H-pyrazolo[3,4-d]pyrimidin-4-yl)thio)acetyl)thiophen-2-yl)methyl)-2-hydroxyacetamide], the IC50 is more than 10000 nM in assay [1], not above 100 nM in assay [2] and not above 100 nM in assay [3].

Turning to `Cc1nc(SCC(=O)c2ccc(CNC(=O)CO)s2)c2cc(OC(F)(F)F)ccc2n1` [Compound 126, 2-hydroxy-N-((5-(2-((2-methyl-6-(trifluoromethoxy)quinazolin-4-yl)thio)acetyl)thiophen-2-yl)methyl)acetamide], the IC50 in assay [1] was more than 10000 nM; in assay [2], not above 100 nM; in assay [3], not above 100 nM.

For `COc1ccc2nc(C)nc(SCC(=O)c3ccc(CN(C)C(=O)CO)s3)c2c1` [Compound 109, 2-hydroxy-N-((5-(2-((6-methoxy-2-methylquinazolin-4-yl)thio)acetyl)thiophen-2-yl)methyl)-N-methylacetamide], the IC50 in assay [2] was not above 100 nM; in assay [3], 500 to 1000 nM.

On to `O=C(CO)NCc1ccc(C(=O)CSc2nc3cc(C(F)(F)F)ncc3o2)s1` [Compound 71, 2-hydroxy-N-((5-(2-((6-(trifluoromethyl)oxazolo[5,4-c]156yrrolid-2-yl)thio)acetyl)thiophen-2-yl)methyl)acetamide], for which the IC50 is 1000 to 10000 nM in assay [1], not above 100 nM in assay [2] and not above 100 nM in assay [3].

Take `COc1cc(F)c2nc(C)nc(SCC(=O)c3ccc(CNC(=O)CO)s3)c2c1` [Compound 108, N-((5-(2-((8-fluoro-6-methoxy-2-methylquinazolin-4-yl)thio)acetyl)thiophen-2-yl)methyl)-2-hydroxyacetamide]: the IC50 in assay [2] is not above 100 nM; in assay [3], 100 to 500 nM.

For `O=C(CO)NCc1ccc(C(=O)CSc2nc(C(F)(F)F)nc3ncccc23)s1` [Compound 113, 2-hydroxy-N-((5-(2-((2-(trifluoromethyl)pyrido[2,3-d]pyrimidin-4-yl)thio)acetyl)thiophen-2-yl)methyl)acetamide], the IC50 is more than 10000 nM in assay [1], not above 100 nM in assay [2] and not above 100 nM in assay [3].

Turning to `CCOc1cnc2nc(C)nc(SCC(=O)c3ccc(CNC(=O)CO)s3)c2c1` [Compound 160, N-((5-(2-((6-ethoxy-2-methylpyrido[2,3-d]pyrimidin-4-yl)thio)acetyl)thiophen-2-yl)methyl)-2-hydroxyacetamide], the IC50 in assay [2] and in assay [3] was not above 100 nM each time.

Turning to `CN(Cc1ccc(C(=O)CSc2nc(C(F)(F)F)nc3nn(C)cc23)s1)C(=O)CO` [Compound 116, 2-hydroxy-N-methyl-N-((5-(2-((2-methyl-6-(trifluoromethyl)-2H-pyrazolo[3,4-d]pyrimidin-4-yl)thio)acetyl)thiophen-2-yl)methyl)acetamide], the IC50 was not above 100 nM in assay [2] and 100 to 500 nM in assay [3].

`Cc1nc(SCC(=O)c2ccc(CNC(=O)CO)s2)c2ncccc2n1` [Compound 153, 2-hydroxy-N-((5-(2-((2-methylpyrido[3,2-d]pyrimidin-4-yl)thio)acetyl)thiophen-2-yl)methyl)acetamide]: the IC50 in assay [2] and in assay [3] was not above 100 nM throughout.

In the case of `COc1cc2c(SCC(=O)c3ccc(CN(C)C(=O)CO)s3)nc(C(F)(F)F)nc2cn1` [Compound 159, 2-hydroxy-N-((5-(2-((6-methoxy-2-(trifluoromethyl)pyrido[3,4-d]pyrimidin-4-yl)thio)acetyl)thiophen-2-yl)methyl)-N-methylacetamide], the IC50 in assay [2] and in assay [3] was not above 100 nM each time.

For the molecule `COc1ccc2nc(C)nc(SCC(=O)c3ccc(CNC(=O)CO)s3)c2c1F` [Compound 158, N-((5-(2-((5-fluoro-6-methoxy-2-methylquinazolin-4-yl)thio)acetyl)thiophen-2-yl)methyl)-2-hydroxyacetamide], the IC50 in assay [2] and in assay [3] was not above 100 nM each time.

Take `COc1cc2c(SCC(=O)c3ccc(CNC(=O)CO)s3)nc(C)nc2cc1F` [Compound 75, N-((5-(2-((7-fluoro-6-methoxy-2-methylquinazolin-4-yl)thio)acetyl)thiophen-2-yl)methyl)-2-hydroxyacetamide]: the IC50 in assay [1] was more than 10000 nM.

Take `COc1cnc2nc(C(F)F)nc(SCC(=O)c3ccc(CNC(=O)CO)s3)c2c1` [Compound 164, N-((5-(2-((2-(difluoromethyl)-6-methoxypyrido[2,3-d]pyrimidin-4-yl)thio)acetyl)thiophen-2-yl)methyl)-2-hydroxyacetamide]: the IC50 in assay [2] and in assay [3] was not above 100 nM throughout.

For the molecule `COc1cc2c(SCC(=O)c3ccc(CNC(=O)CO)s3)nc(C(F)(F)F)nc2cn1` [Compound 154, 2-hydroxy-N-((5-(2-((6-methoxy-2-(trifluoromethyl)pyrido[3,4-d]pyrimidin-4-yl)thio)acetyl)thiophen-2-yl)methyl)acetamide], the IC50 in assay [2] and in assay [3] was not above 100 nM throughout.

Regarding `Cc1nc(SCC(=O)c2ccc(CNC(=O)C3CC3)s2)c2ccccc2n1` [Example 35, N-((5-(2-((2-methylquinazolin-4-yl)thio)acetyl)thiophen-2-yl)methyl)cyclopropanecarboxamide], the IC50 in assay [4] was not above 100 nM; in assay [5] it was more than 10000 nM; in assay [3], 100 to 500 nM.

`Cc1nc(SCC(=O)c2ccc(CNS(C)(=O)=O)s2)c2ccccc2n1` [Compound 97, N-((5-(2-((2-methylquinazolin-4-yl)thio)acetyl)thiophen-2-yl)methyl)methanesulfonamide]: the IC50 is not above 100 nM in assay [4], 1000 to 10000 nM in assay [5] and 100 to 500 nM in assay [3].

With `CC(C)(C)C(=O)NCCc1ccc(C(=O)CSc2nc(C(F)(F)F)nc3ccccc23)s1` [Example 29, N-(2-(5-(2-((2-(trifluoromethyl)quinazolin-4-yl)thio)acetyl)thiophen-2-yl)ethyl)pivalamide], the results for the IC50 in assay [4], in assay [5] and in assay [3] were not above 100 nM, more than 10000 nM and 100 to 500 nM, respectively.

`Cc1nnc(SCC(=O)c2ccc(CNC(=O)C(C)(C)C)s2)c2ccccc12` [Example 194, N-((5-(2-((4-methylphthalazin-1-yl)thio)acetyl)thiophen-2-yl)methyl)pivalamide]: the IC50 is not above 100 nM in assay [4], more than 10000 nM in assay [5] and 100 to 500 nM in assay [3].

Take `Cn1cc2c(SCC(=O)c3ccc(CNC(=O)CO)s3)nc(C(F)F)nc2n1` [Compound 69, N-((5-(2-((6-(difluoromethyl)-2-methyl-2H-pyrazolo[3,4-d]pyrimidin-4-yl)thio)acetyl)thiophen-2-yl)methyl)-2-hydroxyacetamide]: the IC50 in assay [2] is not above 100 nM; in assay [3], 100 to 500 nM.

For the molecule `CC(C)(C)C(=O)NCc1ccc(C(=O)CSc2nc(C3CC3)nc3ccccc23)s1` [Example 2, N-((5-(2-((2-cyclopropylquinazolin-4-yl)thio)acetyl)thiophen-2-yl)methyl)pivalamide], the figures for the IC50 in assay [4], in assay [5] and in assay [3] were not above 100 nM, more than 10000 nM and 100 to 500 nM, respectively.

Values taken from patent US20250051319A1 (AUGUSTINE THERAPEUTICS, priority 2021, published 2025).
